Data published in patent publication US9938335B2, “Glucagon and GLP-1 co-agonist compounds” (Eli Lilly and Company, priority 2015, dated 2018).
Where two headings read alike, the source gives them in different places. Marks after values point to notes of the source that are not given here.

Columns and labels:
hGcg-R [1] = biological target: T1, hGcg-R (Homo sapiens, UniProt P47871); assay: hGcg-R Binding Assay (SPA radioligand competition, 293HEK membranes); settings: read-out: Ki, nM ± SEM at the hGcg-R
T1 sequence (P47871 26-477): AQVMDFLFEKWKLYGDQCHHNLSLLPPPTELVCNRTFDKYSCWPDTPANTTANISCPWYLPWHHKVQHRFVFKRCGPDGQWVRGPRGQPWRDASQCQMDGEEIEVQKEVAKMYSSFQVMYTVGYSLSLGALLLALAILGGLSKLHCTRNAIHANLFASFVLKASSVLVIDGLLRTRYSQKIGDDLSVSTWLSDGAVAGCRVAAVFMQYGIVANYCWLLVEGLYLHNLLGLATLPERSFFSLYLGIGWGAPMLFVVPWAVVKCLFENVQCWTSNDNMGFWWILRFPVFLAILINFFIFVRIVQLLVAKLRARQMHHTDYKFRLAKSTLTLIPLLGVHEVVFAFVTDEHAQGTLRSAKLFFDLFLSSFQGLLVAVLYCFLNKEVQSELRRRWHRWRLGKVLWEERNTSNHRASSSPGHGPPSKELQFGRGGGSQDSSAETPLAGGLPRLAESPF

rat GLP-1-R = biological target: T2, rat GLP-1-R (Rattus norvegicus, UniProt P32301); assay: Functional activation of the rat GLP-1-R in insulinoma cell line INS1 832-3 (cAMP); type: cell-based
T2 construct: stimulating cAMP production at the endogenous GLP-1 receptors; endogenous in cells; host or cells: INS1 832-3 rat insulinoma cells
T2 sequence (P32301 22-463): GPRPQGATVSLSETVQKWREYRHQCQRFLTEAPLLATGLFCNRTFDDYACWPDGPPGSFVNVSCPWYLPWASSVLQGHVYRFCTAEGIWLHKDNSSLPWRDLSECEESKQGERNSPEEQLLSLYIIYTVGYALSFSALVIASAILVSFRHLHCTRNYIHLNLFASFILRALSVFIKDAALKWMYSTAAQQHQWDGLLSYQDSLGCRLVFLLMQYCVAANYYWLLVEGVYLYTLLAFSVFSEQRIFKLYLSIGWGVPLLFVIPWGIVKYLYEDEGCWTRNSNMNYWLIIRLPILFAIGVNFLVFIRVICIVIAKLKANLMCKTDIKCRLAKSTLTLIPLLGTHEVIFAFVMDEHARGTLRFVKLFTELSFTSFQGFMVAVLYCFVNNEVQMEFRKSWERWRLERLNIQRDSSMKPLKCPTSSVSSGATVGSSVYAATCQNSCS
Description: Performance of the assay requires detachment of the cells from culture flasks using Enzyme Free Cell Stripper and pelleted by centrifugation at 1000 rpm for 5 minutes at room temperature. […] After 2 hours starvation, cells are treated with compound by adding 10 μl of 5× compound dilutions into the cell plates (n=2) and incubated in a 37° C., 5% CO2 incubator for 30 minutes.
cAMP concentration is measured using a HTRF cAMP assay kit (Cisbio): cAMP-d2 conjugate in cell lysis buffer (20 μl) followed by the antibody anti-cAMP-Eu^3+-Cryptate, also in cell lysis buffer (20 μl), is added to the cells of the plate.
The assay is performed with duplicated plates.

[2] = Pharmacokinetics in cynomolgus monkeys; type: in vivo; settings: Table 8: single SC 50 nmol/kg; for Cmax: read-out: Cmax
Description: The compounds are administered by a single intravenous or subcutaneous dose of 50 nmole/kg or 250 nmole/kg.
The plasma concentrations of compounds are determined by a LC/MS method. Briefly, a compound of the present invention is extracted from 100% monkey plasma (25 μl) using acetonitrile. Two distinct layers are formed upon centrifugation with the compound located in the liquid layer. An 80 μl aliquot of the supernatant was transferred to a 96-well plate, diluted with 150 μl of water and 25 μl of formic acid. The diluted sample (10 μl) was injected onto a Supelco Analytical Discovery BIO Wide Pore C5-3, 5 cm×1 mm, 3 um column. The column effluent is directed into a Thermo Q-Exactive mass spectrometer for detection and quantitation.

DIO mice (C57BL/6) [3] = assay: Acute treatment in DIO mice (PCSK9, FGF-21, cholesterol); type: in vivo, mouse; settings: 30 nmol/kg sc, 16 hours post dose
DIO mice (C57BL/6) [4] = assay: Effects on energy expenditure in DIO mice (indirect calorimetry); type: in vivo, mouse; settings: for Cumulative Heat (Kcal/kg lean mass/3 day): test article 15 nmol/kg, semaglutide 60 nmol/kg sc every three days
Description: Seven to eight months old male DIO mice (C57BL/6) weighing 45-50 g are used in this study to assess the effect of compounds of the present invention on energy metabolism. Animals are individually housed in a temperature-controlled (24° C.) facility with a 12 hour light/dark cycle (lights on 22:00), and free access to food (TD95217)(Teklad) and water. After 2 weeks acclimation to the facility, mice are randomized to treatment groups (N=6/group) based on body weight so each group has similar starting mean body weight. Animals are placed in a PhenoMaster/LabMaster calorimeter (TSE Systems, Chesterfield, Mo.) for 8 days of acclimation.
Heat and […] (RER) are measured by indirect calorimetry as described using an open-circuit calorimetry system. RER is the ratio of the volume of CO2 produced (VCO2) to the volume of O2 consumed (VO2). Heat is calculated with lean body weight considered. The energy expenditure is kcal/kg/3 day and expressed as mean±SEM of 6 mice per group. Statistical significance is assessed by two-way ANOVA followed by Tukey's multiple comparison test.

hGcg-R [5] = biological target: T1, hGcg-R; assay: Functional activation of hGcg-R in primary human hepatocytes (cAMP); type: cell-based; design: stimulating cAMP production at the endogenous Gcg receptors; endogenous in cells; host or cells: cryopreserved primary human hepatocytes
Description: Primary human hepatocytes are used to determine functional activity of compounds on stimulating cAMP production at the endogenous Gcg receptors. Vials of human primary hepatocytes are frozen in a liquid nitrogen tank. Upon removal, vials are thawed immediately in a water bath having a temperature of 37° C. Cell suspension is then transferred to 50 ml CHRM (Gibco/Life Technologies cat#CM7000 Cryopreserved Hepatocyte Recovery Medium).
The cell suspension is centrifuged at 1,000×g for 10 min. Cell pellets are resuspended in 5 ml of Plating Media after removing the CHRM by aspiration. The Plating Media is prepared by adding entire contents of CM3000 Supplement Packs to 500 ml Williams Media (Gibco/Life Technologies), followed by sterile filtration through a 0.22 μm membrane.
The cell density is counted on hemocytometer, by adding 100 μl of cell suspension to 100 μl Trypan Blue (HyClone Trypan Blue 0.04%, catalog number SV30084.01). The cell suspension is further diluted in the Plating Media to the final cell density of 0.8×10^6 cells per ml. […] 65 ml of the cell suspension is then added to each well of the Collagen coated 96-well plate to final cell density 50,000 cells per well. The cell plate is incubated in a 37° C., 5% CO2 incubator for 3-4 hours.
After 3-4 hours incubation, the media is aspirated and replaced with 100 ml Maintenance Media. The maintenance media is prepared by adding entire contents of CM4000 Supplement Packs to 500 ml Williams Media (Gibco/Life Technologies), followed by sterile filtration through a 0.22 μm membrane. The cell plate is returned to the 37° C., 5% CO2 incubator overnight in preparation for the cAMP assay.
The cell plate is removed from the incubator and the media is removed by gentle aspiration without disturbing the cell monolayer.
cAMP concentration is measured using a HTRF cAMP assay kit (Cisbio): cAMP-d2 conjugate in cell lysis buffer (40 μl) followed by the antibody anti-cAMP-Eu^3+-Cryptate, also in cell lysis buffer (40 μl), is added to the cells of the plate.

[6] = male, cynomolgus monkey, plasma, sc, 50 nmol/kg, individual animals
[7] = male, cynomolgus monkey, plasma, sc, 50 nmol/kg, mean

Ki (hGcg-R [1]): 14.6 ± 4.4 nM
EC50 (rat GLP-1-R; INS1 832-3 cells, cAMP, 30 minutes): 26.1 nM
Emax (rat GLP-1-R; INS1, percent of maximal response with native GLP-1 peptide at 300 nM): 112%
AUC(0-inf) ([2]; individual animals): 21.672 µM·h
CL/F ([2]; individual animals): 2.31 mL/h/kg
Cmax ([2]; individual animals): 253 nM
T1/2 ([2]; male cynomolgus monkeys, individual animals): 47 h
Tmax [2, 6]: 12 h
AUC(0-inf) ([2]; male, cynomolgus monkey, plasma, sc, 50 nmol/kg, individual animals, read-out: AUC0-inf): 24.9 µM·h
CL/F ([2]; male, cynomolgus monkey, plasma, sc, 50 nmol/kg, individual animals, read-out: CL/F (converted)): 2.01 mL/h/kg
Cmax [2, 6]: 236 nM
half-life ([2]; male, cynomolgus monkey, plasma, sc, 50 nmol/kg, male cynomolgus monkeys, individual animals): 67 h
Tmax [2, 7]: ~12 h
half-life [2, 7]: 57 h
AUC(0-inf) ([2]; male, cynomolgus monkey, plasma, sc, 50 nmol/kg, mean, read-out: AUC0-inf): 23.3 µM·h
CL/F ([2]; male, cynomolgus monkey, plasma, sc, 50 nmol/kg, mean, read-out: CL/F (converted)): 2.16 mL/h/kg
Cmax [2, 7]: 244 nM
Emax (hGcg-R [5]; percent of maximal response with a Gcg analog conjugated to a saturated C18 fatty acid (diacid)): 100%
EC50 (hGcg-R [5]; primary human hepatocytes, cAMP, 1 hour): 99.9 nM
SMILES: CC(C)C[C@H](NC(=O)[C@H](CC(C)C)NC(=O)[C@H](Cc1c[nH]c2ccccc12)NC(=O)[C@H](CCC(=O)O)NC(=O)[C@@H](NC(=O)[C@H](Cc1ccccc1)NC(=O)[C@H](CCC(=O)O)NC(=O)[C@H](CCCCNC(=O)COCCOCCNC(=O)COCCOCCNC(=O)CC[C@H](NC(=O)CCCCCCCCCCCCCCCCC(=O)O)C(=O)O)NC(=O)[C@H](C)NC(=O)[C@H](CCCCN)NC(=O)[C@H](CCCCN)NC(=O)[C@H](CCC(=O)O)NC(=O)[C@H](CC(=O)O)NC(=O)[C@H](CC(C)C)NC(=O)[C@H](Cc1ccc(O)cc1)NC(=O)[C@H](CCCCN)NC(=O)[C@H](CO)NC(=O)[C@H](Cc1ccc(O)cc1)NC(=O)[C@H](CC(=O)O)NC(=O)[C@H](CO)NC(=O)[C@@H](NC(=O)[C@H](Cc1ccccc1)NC(=O)[C@@H](NC(=O)CNC(=O)[C@H](CCC(N)=O)NC(=O)C(C)(C)NC(=O)[C@@H](N)Cc1c[nH]cn1)[C@@H](C)O)[C@@H](C)O)C(C)C)C(=O)N[C@@H](CCC(=O)O)C(=O)NCC(=O)NCC(=O)N1CCC[C@H]1C(=O)N[C@@H](CO)C(=O)N[C@@H](CO)C(=O)NCC(N)=O [Compound 1]
cAMP production (rat GLP-1-R; INS1 832-3 cells, data not shown): increased cAMP production in a dose-dependent manner
Cholesterol (% of vehicle) (DIO mice (C57BL/6) [3]): 60.9* % of vehicle
FGF-21 (% of vehicle) (DIO mice (C57BL/6) [3]): 1770* % of vehicle
PCSK9 (% of vehicle) (DIO mice (C57BL/6) [3]): 14.6* % of vehicle
metabolic rate (DIO mice (C57BL/6) [4]; DIO mice, chronic treatment): increased their metabolic rate starting from Week 2
Cumulative Heat (Kcal/kg lean mass/3 day) (DIO mice (C57BL/6) [4]; Day 1 to Day 4): 1749 ± 136 Kcal/kg lean mass/3 day
Cumulative Heat (Kcal/kg lean mass/3 day) (DIO mice (C57BL/6) [4]; Day 4 to Day 7): 1822 ± 173 Kcal/kg lean mass/3 day
Cumulative Heat (Kcal/kg lean mass/3 day) (DIO mice (C57BL/6) [4]; Day 7 to Day 10): 2349 ± 129 Kcal/kg lean mass/3 day
Cumulative Heat (Kcal/kg lean mass/3 day) (DIO mice (C57BL/6) [4]; Day 10 to Day 13): 2351 ± 144 Kcal/kg lean mass/3 day
cAMP production (hGcg-R [5]; primary human hepatocytes, data not shown): increased cAMP production in a dose-dependent manner
